Measurements: publication PMC12396409, “Screening and hit evaluation of a microbial metabolite library against the pathogenic Plasmodium falciparum and Toxoplasma gondii parasites” (International Journal for Parasitology: Drugs and Drug …, 2025)
Like-named read-outs stand apart in the source and are kept apart here.

Tests used:
[1] = tested on: T. gondii RH strain (RH-Tub-eYFP) tachyzoites; test: microbe, parasite or virus in culture; format: cell-based, Toxoplasma gondii; conditions: library screen at 2 μg/mL, 72 h, % growth; for percent parasite growth at 2 µg/mL: Toxoplasma gondii
[2] = tested on: P. falciparum 3D7 parasites; test: P. falciparum growth inhibition assay, 2-cycle (120 h treatment), delayed-death screen and dose-response; format: cell-based, Plasmodium falciparum; conditions: for Pf_120h_%Growth_Rep1 / Pf_120h_%Growth_Rep2 / activity at 2 µg/mL: library screen at 2 μg/mL, % growth; for activity at 2 µg/mL: Plasmodium falciparum
[3] = tested on: P. falciparum 3D7 parasites; test: P. falciparum growth inhibition assay, 1-cycle (72 h treatment), SYBR DNA staining (library screen at 2 μg/mL and dose-response); format: cell-based, Plasmodium falciparum; conditions: 72 h; for Pf_72h_%Growth_Rep1 / Pf_72h_%Growth_Rep2 / activity at 2 µg/mL: library screen at 2 μg/mL, % growth; for activity at 2 µg/mL: Plasmodium falciparum
[4] = replicate 1, read-out: Tg_72h_%Growth_Rep1
[5] = replicate 2, read-out: Tg_72h_%Growth_Rep2
[6] = 3D7, 120 h, 120 h, replicate 1, read-out: Pf_120h_%Growth_Rep1
[7] = 3D7, 120 h, 120 h, replicate 2, read-out: Pf_120h_%Growth_Rep2
[8] = 3D7, 72 h, replicate 1, read-out: Pf_72h_%Growth_Rep1
[9] = 3D7, 72 h, replicate 2, read-out: Pf_72h_%Growth_Rep2
[10] = 3D7, 120 h, replicate 1, read-out: Pf_120h_%Growth_Rep1
[11] = 3D7, 120 h, replicate 2, read-out: Pf_120h_%Growth_Rep2
[12] = 3D7, replicate 1, read-out: Pf_72h_%Growth_Rep1
[13] = 3D7, replicate 2, read-out: Pf_72h_%Growth_Rep2

| SMILES | Tg_72h_%Growth_Rep1 ([1]; replicate 1) | Tg_72h_%Growth_Rep2 ([1]; replicate 2) | Pf_120h_%Growth_Rep1 ([2]; 120 h, replicate 1) | Pf_120h_%Growth_Rep2 ([2]; 120 h, replicate 2) | Pf_72h_%Growth_Rep1 ([3]; replicate 1) | Pf_72h_%Growth_Rep2 ([3]; replicate 2) | percent parasite growth at 2 µg/mL [1, 4] | percent parasite growth at 2 µg/mL [1, 5] | other results |
| --- | --- | --- | --- | --- | --- | --- | --- | --- | --- |
| C/C=C(/C)c1cc(O)c(C)c2c1Oc1c(C)c(O)cc(/C(C)=C\C)c1C(=O)O2 [Folipastatin] | 114.14% | 93.99% | 81.33% | 105.49% | 84.22% | 87.89% | – | – | – |
| C[C@@](O)(/C=C/[C@H]1CC=CC(=O)O1)[C@@H](C[C@@H](O)\C=C/C=C\C=C\CO)OP(=O)(O)O [Fostriecin] | – | – | – | – | – | – | 113% | 102% | activity at 2 µg/mL [2, 6]: 36.9%; activity at 2 µg/mL [2, 7]: 56%; activity at 2 µg/mL [3, 8]: 29.1%; activity at 2 µg/mL [3, 9]: 38.8% |
| CCC/C=C/C=C/C1C[C@@H](O)[C@@H](O)C(=O)[C@H]1C=O (stereo partly drawn) [Frequentin] | 198.87% | 96.89% | 99.31% | 94.53% | 84.65% | 84.20% | – | – | – |
| CC1(O)Cc2oc3cc(O)c(O)c(C(=O)O)c3c(=O)c2CO1 (stereo not drawn) [Fulvic acid] | 149.83% | 113.67% | 105.15% | 98.61% | 84.86% | 84.76% | – | – | – |
| CO[C@@H]1[C@H](OC(=O)/C=C/C=C/C=C/C=C/C(=O)O)CC[C@]2(CO2)[C@H]1[C@@]1(C)O[C@@H]1CC=C(C)C [Fumagillin] | – | – | – | – | – | – | 31% | 30.7% | activity at 2 µg/mL [2, 6]: 7.49%; activity at 2 µg/mL [2, 7]: 7.63%; activity at 2 µg/mL [3, 8]: 10.6%; activity at 2 µg/mL [3, 9]: 6.01% |
| Cc1cc(O)c(C=O)c2c1C(=O)Oc1c(COC(=O)/C=C/C(=O)O)c(O)c(C(=O)O)c(C)c1O2 [Fumarprotocetraric acid] | – | – | – | – | – | – | 126% | 103% | activity at 2 µg/mL [2, 10]: 102%; activity at 2 µg/mL [2, 11]: 100%; activity at 2 µg/mL [3, 12]: 84.6%; activity at 2 µg/mL [3, 13]: 90.2% |
| COC1=C(OC)C(=O)C(C)=CC1=O [Fumigatin methylether] | 59.41% | 97.15% | 25.98% | 27.21% | 10.44% | 11.19% | – | – | – |
| C[C@H]1C(=O)N2c3ccccc3[C@@]3(O)C[C@@H]4C(=O)N[C@](C)(c5nc6ccccc6c(=O)n54)N1[C@@H]23 [Fumiquinazoline D] | – | – | – | – | – | – | 124% | 109% | activity at 2 µg/mL [2, 10]: 80.2%; activity at 2 µg/mL [2, 11]: 101%; activity at 2 µg/mL [3, 12]: 76.9%; activity at 2 µg/mL [3, 13]: 108% |
| COc1ccc2c3c([nH]c2c1)[C@H](C=C(C)C)N1C(=O)[C@@H]2CCCN2C(=O)[C@@H]1C3 [Fumitremorgin C] | 152.38% | 98.57% | 98.00% | 92.77% | 84.21% | 83.65% | – | – | – |
| CCCC[C@@H](C)[C@@H](OC(=O)C[C@@H](CC(=O)O)C(=O)O)[C@H](C[C@@H](C)C[C@H](O)CCCC[C@@H](O)C[C@H](O)[C@H](C)N)OC(=O)C[C@@H](CC(=O)O)C(=O)O [Fumonisin B1] | 135.48% | 98.34% | 97.02% | 120.58% | 90.20% | 119.39% | – | – | – |
| CCCC[C@@H](C)[C@@H](OC(=O)C[C@@H](CC(=O)O)C(=O)O)[C@H](C[C@@H](C)CCCCCC[C@@H](O)C[C@H](O)[C@H](C)N)OC(=O)C[C@@H](CC(=O)O)C(=O)O [Fumonisin B2] | 118.32% | 95.97% | 88.54% | 108.75% | 86.29% | 114.27% | – | – | – |
| COC1=C(O)c2c(O)cc(C)c3c(O)cc(O)c(c23)C1=O [Funalenone] | 131.40% | 92.93% | 97.73% | 107.04% | 89.99% | 108.10% | – | – | – |
| CCCCCCC(C)C/C(C)=C\C(/C=C(C)/C=C/C(O)C(C)(C)c1cc(O)c([C@@H]2O[C@H](CO)C[C@H](O)[C@H]2O)c(=O)o1)CO (stereo partly drawn) [Fusapyrone] | 113.82% | 93.81% | 92.76% | 105.39% | 90.44% | 35.77% | – | – | – |
| CCCCc1ccc(C(=O)O)nc1 [Fusaric acid] | – | – | – | – | – | – | 118% | 83.8% | activity at 2 µg/mL [2, 6]: 80.2%; activity at 2 µg/mL [2, 7]: 85%; activity at 2 µg/mL [3, 8]: 78%; activity at 2 µg/mL [3, 9]: 31.2% |
| C[C@H]1CC[C@H]2[C@@H](C=C[C@@H]3[C@H]4[C@@H](C)O[C@]5(O)[C@@H](CO)N(C)C(=O)[C@]45C(=O)[C@@]32C)C1 [Fusarisetin A] | 159.47% | 97.52% | 74.69% | 108.30% | 74.99% | 87.91% | – | – | – |
| CC(=O)O[C@H]1C[C@@]2(C)[C@@H](C[C@@H](O)[C@H]3[C@@]4(C)CC[C@@H](O)[C@@H](C)[C@@H]4CC[C@@]32C)/C1=C(\CCC=C(C)C)C(=O)O [Fusidate sodium] | – | – | – | – | – | – | 111% | 91.8% | activity at 2 µg/mL [2, 6]: 91.2%; activity at 2 µg/mL [2, 7]: 139%; activity at 2 µg/mL [3, 8]: 87.5%; activity at 2 µg/mL [3, 9]: 96% |
| CC(=O)OCc1c(O)c2c(c3c1OC(=O)c1c(C)cc(O)c(C=O)c1O3)C(O)OC2=O (stereo not drawn) [Galbinic acid] | 125.30% | 103.13% | 99.54% | 110.27% | 88.09% | 110.75% | – | – | – |
| C[C@@H]1C=C2C(=O)O[C@@H]3CC[C@H](C1)[C@]23O [Galiellalactone] | 132.28% | 99.14% | 91.95% | 97.41% | 88.40% | 106.75% | – | – | – |
| CCCN1C[C@H](C)[C@@H](O)[C@](C)(O)[C@@H](CC)OC(=O)[C@H](C)[C@@H](O[C@H]2C[C@@](C)(OC)[C@@H](O)[C@H](C)O2)[C@H](C)[C@@H](O[C@@H]2O[C@H](C)C[C@H](N(C)C)[C@H]2O)[C@](C)(O)C[C@H]1C [Gamithromycin, reference compound] | 33.80% | 38.81% | 12.20% | 18.72% | 42.98% | 74.08% | – | – | 2) Growth (%) at 120 h ([2]; P. falciparum, 2 μg/mL, 120 h): 15.46%; 3) Fold change (72 h/120 h) ([2]; P. falciparum, growth at 72 h / growth at 120 h, 2 μg/mL): 3.8; 1) Growth (%) at 72 h ([3]; P. falciparum, 2 μg/mL): 58.53% |
